Reference: US20220401408A1, “COMPOSITIONS AND METHODS FOR RESCUING RETINAL AND CHOROIDAL STRUCTURE AND FUNCTION” (AUCKLAND UNISERVICES LIMITED, priority 2019, published 2022)

Experiment: Body weight of hyperglycemic rats
Assay type: in vivo, SD rats (spontaneously hyperglycemic strain)
Details: 0.28 mg/kg once daily 14 days; week 8
Excerpt: Hyperglycemic Rat Diabetic Retinopathy Model—A spontaneously hyperglycemic strain of SD rats, which developed clinical signs of diabetic retinopathy within 4 weeks of birth were identified and isolated within the Vernon Jansen Animal Research Unit, Faculty of Medical and Health Sciences at the University of Auckland. The identification of these rats presenting with hyperglycemia and microaneurysms provided an opportunity to treat a complex, chronic disease model and assess the treatment effect based upon objective, measurable endpoints, despite lacking precise information on the etiology of the disease. Inbreeding was carried out over three generations and eyes were screened for abnormalities between 4-8 weeks of age. […]
Ten rats per group were the selected (10 normal SD and 10 hyperglycemic) grown to 5 weeks of age and assessed using OCT and ERG. […] All animals were assessed again using ERG and OCT at 8 weeks of age before euthanizing animals and removing the eyes for immunohistochemical analysis. […] In summary, normal SD and hyperglycemic rats were analyzed with OCT and ERG at 5 weeks of age; the hyperglycemic rats were then split into two groups and fed the vehicle or tonabersat for 14 days during weeks 6 and 7 of age. At week 8, animals were again assessed with ERG and OCT and tissues collected for immunohistochemical analysis. […]

CC(=O)c1ccc2c(c1)[C@H](NC(=O)c1ccc(F)c(Cl)c1)[C@H](O)C(C)(C)O2 [tonabersat, N-[(3S,4S)-6-acetyl-3-hydroxy-2,2-dimethyl-3,4-dihydrochromen-4-yl]-3-chloro-4-fluorobenzamide]
body weight, treated vs untreated hyperglycemic rats: no difference
